Source: patent US20230085307A1, “PYRIDAZINONE COMPOUND AND HERBICIDE” (NISSAN CHEMICAL CORPORATION, priority 2019, published 2023)

Experiments:
southern crabgrass [1] = assay: Test Example 4: herbicidal effect by soil treatment (Table 19, symbol F); type: in vivo, southern crabgrass (Digitaria ciliaris); conditions: amount of applied herbicide 320 g/ha
Outline: (§1)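 Step 1: sow seeds in sterilized diluvial soil, cover ~1.5 cm. Step 2: spray diluted emulsion onto soil surface at predetermined rate. Step 3: greenhouse, 25–30° C, three weeks. Step 4: grade effect on each plant by earlier criteria.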

green foxtail [2] = assay: Test Example 4: herbicidal effect by soil treatment (Table 19, symbol G); type: in vivo, green foxtail (Setaria viridis); conditions: amount of applied herbicide 320 g/ha
Outline: as §1

barnyard grass [3] = assay: Test Example 4: herbicidal effect by soil treatment (Table 19, symbol H); type: in vivo, barnyard grass (Echinochloa crus-galli); conditions: amount of applied herbicide 320 g/ha
Outline: as §1

wild oat [4] = assay: Test Example 4: herbicidal effect by soil treatment (Table 19, symbol I); type: in vivo, wild oat (Avena fatua); conditions: amount of applied herbicide 320 g/ha
Outline: as §1

blackgrass [5] = assay: Test Example 4: herbicidal effect by soil treatment (Table 19, symbol J); type: in vivo, blackgrass (Alopecurus myosuroides); conditions: amount of applied herbicide 320 g/ha
Outline: as §1

Italian ryegrass [6] = assay: Test Example 4: herbicidal effect by soil treatment (Table 19, symbol K); type: in vivo, Italian ryegrass (Lolium multiflorum); conditions: amount of applied herbicide 320 g/ha
Outline: as §1

windgrass [7] = assay: Test Example 4: herbicidal effect by soil treatment (Table 19, symbol L); type: in vivo, windgrass (Apera spica-venti); conditions: amount of applied herbicide 320 g/ha
Outline: as §1

velvetleaf [8] = assay: Test Example 4: herbicidal effect by soil treatment (Table 19, symbol M); type: in vivo, velvetleaf (Abutilon theophrasti); conditions: amount of applied herbicide 320 g/ha
Outline: as §1

redroot pigweed [9] = assay: Test Example 4: herbicidal effect by soil treatment (Table 19, symbol N); type: in vivo, redroot pigweed (Amaranthus retroflexus); conditions: amount of applied herbicide 320 g/ha
Outline: as §1

lambsquarters [10] = assay: Test Example 4: herbicidal effect by soil treatment (Table 19, symbol O); type: in vivo, lambsquarters (Chenopodium album); conditions: amount of applied herbicide 320 g/ha
Outline: as §1

chickweed [11] = assay: Test Example 4: herbicidal effect by soil treatment (Table 19, symbol P); type: in vivo, common chickweed (Stellaria media); conditions: amount of applied herbicide 320 g/ha
Outline: as §1

persian speedwell [12] = assay: Test Example 4: herbicidal effect by soil treatment (Table 19, symbol R); type: in vivo, Persian speedwell (Veronica persica); conditions: amount of applied herbicide 320 g/ha
Outline: as §1

southern crabgrass [13] = assay: Test Example 5: herbicidal effect by foliage application, plastic box (Table 20, symbol F); type: in vivo, southern crabgrass (Digitaria ciliaris); conditions: foliage application, 320 g/ha
Outline: (§2)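 Foliar spray test: emulsion formulation diluted in water to a set application rate, sprayed onto 14-day-old plants raised in diluvial soil at 25° C to 30° C under glass. Both herbicidal effect and crop effect rated visually three weeks later.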

green foxtail [14] = assay: Test Example 5: herbicidal effect by foliage application, plastic box (Table 20, symbol G); type: in vivo, green foxtail (Setaria viridis); conditions: foliage application, 320 g/ha
Outline: as §2

barnyard grass [15] = assay: Test Example 5: herbicidal effect by foliage application, plastic box (Table 20, symbol H); type: in vivo, barnyard grass (Echinochloa crus-galli); conditions: foliage application, 320 g/ha
Outline: as §2

wild oat [16] = assay: Test Example 5: herbicidal effect by foliage application, plastic box (Table 20, symbol I); type: in vivo, wild oat (Avena fatua); conditions: foliage application, 320 g/ha
Outline: as §2

blackgrass [17] = assay: Test Example 5: herbicidal effect by foliage application, plastic box (Table 20, symbol J); type: in vivo, blackgrass (Alopecurus myosuroides); conditions: foliage application, 320 g/ha
Outline: as §2

Italian ryegrass [18] = assay: Test Example 5: herbicidal effect by foliage application, plastic box (Table 20, symbol K); type: in vivo, Italian ryegrass (Lolium multiflorum); conditions: foliage application, 320 g/ha
Outline: as §2

windgrass [19] = assay: Test Example 5: herbicidal effect by foliage application, plastic box (Table 20, symbol L); type: in vivo, windgrass (Apera spica-venti); conditions: foliage application, 320 g/ha
Outline: as §2

velvetleaf [20] = assay: Test Example 5: herbicidal effect by foliage application, plastic box (Table 20, symbol M); type: in vivo, velvetleaf (Abutilon theophrasti); conditions: foliage application, 320 g/ha
Outline: as §2

redroot pigweed [21] = assay: Test Example 5: herbicidal effect by foliage application, plastic box (Table 20, symbol N); type: in vivo, redroot pigweed (Amaranthus retroflexus); conditions: foliage application, 320 g/ha, evaluated three weeks after application
Outline: as §2

lambsquarters [22] = assay: Test Example 5: herbicidal effect by foliage application, plastic box (Table 20, symbol O); type: in vivo, lambsquarters (Chenopodium album); conditions: foliage application, 320 g/ha
Outline: as §2

chickweed [23] = assay: Test Example 5: herbicidal effect by foliage application, plastic box (Table 20, symbol P); type: in vivo, common chickweed (Stellaria media); conditions: foliage application, 320 g/ha, evaluated three weeks after application
Outline: as §2

false cleavers = assay: Test Example 5: herbicidal effect by foliage application, plastic box (Table 20, symbol Q); type: in vivo, false cleavers (Galium spurium); conditions: foliage application, 320 g/ha
Outline: as §2

persian speedwell [24] = assay: Test Example 5: herbicidal effect by foliage application, plastic box (Table 20, symbol R); type: in vivo, Persian speedwell (Veronica persica); conditions: foliage application, 320 g/ha
Outline: as §2

barnyard grass [25] = assay: Test Example 3: herbicidal effect by foliage application, Wagner pot (Table 18, symbol H); type: in vivo, barnyard grass (Echinochloa crus-galli); conditions: 320 g/ha
Outline: (§3)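 Plants were sown in alluvial soil held under 0.1–0.5 cm standing water and grown 14 days in a greenhouse at 25–30 °C. An emulsifiable formulation, water-diluted to the set dose, was then sprayed onto the foliage, and effects were scored three weeks later using previously defined criteria.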

Chinese sprangletop = assay: Test Example 3: herbicidal effect by foliage application, Wagner pot (Table 18, symbol D); type: in vivo, chinese sprangletop (Leptochloa chinensis); conditions: 320 g/ha
Outline: as §3

rice flat sedge = assay: Test Example 3: herbicidal effect by foliage application, Wagner pot (Table 18, symbol E); type: in vivo, rice flat sedge (Cyperus iria); conditions: 320 g/ha
Outline: as §3

[26] = evaluated three weeks after application

## COc1cc(F)ccc1-c1sc2ccc(-c3ccoc3)cc2c1-c1c(O)c(C)nn(C)c1=O [2-170]
Southern crabgrass [1]
  F: southern crabgrass, herbicidal effect rating: 3 (Herbicidal rate of 40% or more and less than 70%)
Green foxtail [2]
  G: green foxtail, herbicidal effect rating: 0 (Herbicidal rate of 5% or less (almost no effect))
Barnyard grass [3]
  H: barnyard grass, herbicidal effect rating: 0 (Herbicidal rate of 5% or less (almost no effect))
Wild oat [4]
  I: wild oat, herbicidal effect rating: 0 (Herbicidal rate of 5% or less (almost no effect))
Blackgrass [5]
  J: blackgrass, herbicidal effect rating: 0 (Herbicidal rate of 5% or less (almost no effect))
Italian ryegrass [6]
  K: Italian ryegrass, herbicidal effect rating: 0 (Herbicidal rate of 5% or less (almost no effect))
Windgrass [7]
  L: windgrass, herbicidal effect rating: 0 (Herbicidal rate of 5% or less (almost no effect))
Velvetleaf [8]
  M: velvetleaf, herbicidal effect rating: 0 (Herbicidal rate of 5% or less (almost no effect))
Redroot pigweed [9]
  N: redroot pigweed, herbicidal effect rating: 0 (Herbicidal rate of 5% or less (almost no effect))
Lambsquarters [10]
  O: lambsquarters, herbicidal effect rating: 2 (Herbicidal rate of 20% or more and less than 40%)
Chickweed [11]
  P: chickweed, herbicidal effect rating: 0 (Herbicidal rate of 5% or less (almost no effect))
Persian speedwell [12]
  R: persian speedwell, herbicidal effect rating: 0 (Herbicidal rate of 5% or less (almost no effect))
Southern crabgrass [13]; [26]
  herbicidal effect on F: southern crabgrass (criteria 0-5): 1 (Herbicidal rate of 5% or more and less than 20%)
Green foxtail [14]; [26]
  herbicidal effect on G: green foxtail (criteria 0-5): 0 (Herbicidal rate of 5% or less (almost no effect))
Barnyard grass [15]; [26]
  herbicidal effect on H: barnyard grass (criteria 0-5): 0 (Herbicidal rate of 5% or less (almost no effect))
Wild oat [16]; [26]
  herbicidal effect on I: wild oat (criteria 0-5): 0 (Herbicidal rate of 5% or less (almost no effect))
Blackgrass [17]; [26]
  herbicidal effect on J: blackgrass (criteria 0-5): 0 (Herbicidal rate of 5% or less (almost no effect))
Italian ryegrass [18]; [26]
  herbicidal effect on K: Italian ryegrass (criteria 0-5): 0 (Herbicidal rate of 5% or less (almost no effect))
Windgrass [19]; [26]
  herbicidal effect on L: windgrass (criteria 0-5): 0 (Herbicidal rate of 5% or less (almost no effect))
Velvetleaf [20]; [26]
  herbicidal effect on M: velvetleaf (criteria 0-5): 3 (Herbicidal rate of 40% or more and less than 70%)
Redroot pigweed [21]
  herbicidal effect on N: redroot pigweed (criteria 0-5): 3 (Herbicidal rate of 40% or more and less than 70%)
Lambsquarters [22]; [26]
  herbicidal effect on O: lambsquarters (criteria 0-5): 3 (Herbicidal rate of 40% or more and less than 70%)
Chickweed [23]
  herbicidal effect on P: chickweed (criteria 0-5): 5 (Herbicidal rate of 90% or more (almost completely withered))
False cleavers; [26]
  herbicidal effect on Q: false cleavers (criteria 0-5): 0 (Herbicidal rate of 5% or less (almost no effect))
Persian speedwell [24]; [26]
  herbicidal effect on R: persian speedwell (criteria 0-5): 1 (Herbicidal rate of 5% or more and less than 20%)

## CCOc1cc2sc(-c3ccccc3OC)c(-c3c(O)c(C)nn(C)c3=O)c2cc1F [5-065]
Barnyard grass [25]
  herbicidal effect on barnyard grass (H): 4 (Herbicidal rate of 70% or more and less than 90%)
Chinese sprangletop
  herbicidal effect on Chinese sprangletop (D): 3 (Herbicidal rate of 40% or more and less than 70%)
Rice flat sedge
  herbicidal effect on rice flat sedge (E): 4 (Herbicidal rate of 70% or more and less than 90%)
Southern crabgrass [1]
  F: southern crabgrass, herbicidal effect grade: 0 (Herbicidal rate of 5% or less (almost no effect))
Green foxtail [2]
  G: green foxtail, herbicidal effect grade: 4 (Herbicidal rate of 70% or more and less than 90%)
Barnyard grass [3]
  H: barnyard grass, herbicidal effect grade: 4 (Herbicidal rate of 70% or more and less than 90%)
Wild oat [4]
  I: wild oat, herbicidal effect grade: 1 (Herbicidal rate of 5% or more and less than 20%)
Blackgrass [5]
  J: blackgrass, herbicidal effect grade: 3 (Herbicidal rate of 40% or more and less than 70%)
Italian ryegrass [6]
  K: Italian ryegrass, herbicidal effect grade: 3 (Herbicidal rate of 40% or more and less than 70%)
Windgrass [7]
  L: windgrass, herbicidal effect grade: 3 (Herbicidal rate of 40% or more and less than 70%)
Velvetleaf [8]
  M: velvetleaf, herbicidal effect grade: 2 (Herbicidal rate of 20% or more and less than 40%)
Redroot pigweed [9]
  N: redroot pigweed, herbicidal effect grade: 5 (Herbicidal rate of 90% or more (almost completely withered))
Lambsquarters [10]
  O: lambsquarters, herbicidal effect grade: 5 (Herbicidal rate of 90% or more (almost completely withered))
Chickweed [11]
  P: chickweed, herbicidal effect grade: 5 (Herbicidal rate of 90% or more (almost completely withered))
Persian speedwell [12]
  R: persian speedwell, herbicidal effect grade: 5 (Herbicidal rate of 90% or more (almost completely withered))
Southern crabgrass [13]; three weeks after application
  herbicidal effect on southern crabgrass (F): 4 (Herbicidal rate of 70% or more and less than 90%)
Green foxtail [14]; three weeks after application
  herbicidal effect on green foxtail (G): 5 (Herbicidal rate of 90% or more (almost completely withered))
Barnyard grass [15]; three weeks after application
  herbicidal effect on barnyard grass (H): 5 (Herbicidal rate of 90% or more (almost completely withered))
Wild oat [16]; three weeks after application
  herbicidal effect on wild oat (I): 4 (Herbicidal rate of 70% or more and less than 90%)
Blackgrass [17]; three weeks after application
  herbicidal effect on blackgrass (J): 4 (Herbicidal rate of 70% or more and less than 90%)
Italian ryegrass [18]; three weeks after application
  herbicidal effect on Italian ryegrass (K): 4 (Herbicidal rate of 70% or more and less than 90%)
Windgrass [19]; three weeks after application
  herbicidal effect on windgrass (L): 5 (Herbicidal rate of 90% or more (almost completely withered))
Velvetleaf [20]; three weeks after application
  herbicidal effect on velvetleaf (M): 5 (Herbicidal rate of 90% or more (almost completely withered))
Lambsquarters [22]; three weeks after application
  herbicidal effect on lambsquarters (O): 5 (Herbicidal rate of 90% or more (almost completely withered))
False cleavers; three weeks after application
  herbicidal effect on false cleavers (Q): 5 (Herbicidal rate of 90% or more (almost completely withered))
Persian speedwell [24]; three weeks after application
  herbicidal effect on persian speedwell (R): 5 (Herbicidal rate of 90% or more (almost completely withered))
